{"source": "patent EP4755386A1", "about": "“SKIN PERMEATION PROMOTER AND SKIN PERMEATION PROMOTION METHOD” (Toyo Sugar Refining Co., Ltd., priority 2023, dated 2025)", "conditions": "pH 7.4", "description": "As a bioactive substance, flavone (manufactured by Tokyo Chemical Industry Co., Ltd., NO. H0721) was used.\nAny substance in the substance group A and a bioactive substance were added to 10 mL of distilled water and mixed to prepare a solution (or suspension), which was used as a test liquid. The substance in the substance group A was added in an amount such that the concentration in the test liquid was 10 mg/mL. The bioactive substance was added in an amount such that the concentration in the test liquid was 250 µg/mL. As a control, a test liquid (flavone only) to which a substance in the substance group A was not added was also prepared.\nA receptor part of a Franz-type vertical diffusion cell was filled with a phosphate buffer (pH 7.4) containing 0.5% sodium taurocholate, and a Strat-M membrane for a transdermal diffusion test (manufactured by Merck) was attached as a permeable membrane. After 400 µL of the test liquid was dropped on the donor side, a receptor liquid was sampled over time. The amount of the bioactive substance in the sampled receptor liquid was quantified by high performance liquid chromatography. The experiment was performed with N = 1.", "data": [{"smiles": "C[C@@H]1O[C@@H](O[C@H]2[C@H](Oc3cc(O)c4c(c3)O[C@H](c3ccc(O)cc3)CC4=O)O[C@H](CO)[C@@H](O)[C@@H]2O)[C@H](O)[C@H](O)[C@H]1O", "note": "[naringin, Naringin]", "values": [{"measurement": "skin permeation amount of flavone", "result": "hardly changed"}]}]}
